# Results from PubChem BioAssay (NCI).
#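 A five-concentration, 48-hour dose response in 96-well plates underlies each endpoint, interpolated linearly between surrounding concentrations. GI50 is the concentration that inhibits growth by half. TGI: concentration producing complete growth inhibition.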
# Test system: MDA-MB-231 breast
# Assay: DTP human tumour cell line panel, 48 h
Structure (SMILES),GI50 [µM],TGI [µM]
C[C@H]1CCC/C=C/[C@@H]2C[C@H](N)C[C@H]2[C@H](O)/C=C/C(=O)O1,> 100,> 100
Cc1sc(C)c(-c2ccc(CO)o2)c1-c1ccc(CO)o1,51,> 100
COc1ccc(-c2cc(-c3cc(Cl)ccc3Cl)nc3nc(=S)[nH]c(N)c23)cc1,3.62,19.8
CC1=C(C)C(=O)O[C@@H]([C@](C)(O)[C@]2(O)CC[C@@]3(O)[C@@H]4C[C@H]5O[C@]56CC=CC(=O)[C@]6(C)[C@H]4CC[C@]23C)C1,0.394,7.66
CNC(=O)c1ccc(-c2cnc3ncc(Cc4ccc5ncccc5c4)n3n2)cc1F,40.8,> 100
COc1ccc2c(-c3cc4ccccc4o3)cc(=O)oc2c1,–,> 100
O=C(Nc1cc(-c2ccccc2)[nH]n1)c1ccc(Cl)cc1,30.4,> 100
CCCSc1cc(Cl)nc(N)n1,> 100,> 100
CN1CCN(Cc2ccc(NC(=O)c3ccc(C(C)(C)C)c(C#Cc4cnc5cccnn45)c3)cc2C(F)(F)F)CC1,1.97,4.14
C=CC(=O)N1CCN(c2ncnc3c(F)c(-c4c(O)cccc4F)c(Cl)cc23)CC1,14.3,35.9
C=CCOc1c(Br)cc(Br)cc1Br,6.7,> 100
Cn1c(N)nc2c(nc(OCc3ccccc3)n2C2OC(CO)C(O)C2O)c1=O (stereo not given),–,> 100
CC(=O)n1c(-c2ccc(Cl)cc2)nc2c(c1=O)C(c1ccc(Cl)cc1)c1sc3c(Cl)cccc3c1O2 (stereo not given),0.887,2.89
COc1cc(/C=C2\CC3C4CC=C5CC(N6CCCC6)CC[C@]5(C)C4CC[C@]3(C)C2OC(C)=O)ccc1OCCN1CCCC1 (stereo not given in full),8.82,22.5
COc1ccccc1C(=O)c1ccc2ccccc2c1,–,> 100
CS(=O)(=O)Nc1ccc(-c2ccc3c(NC(=O)C4CC4)n[nH]c3c2)cc1,> 25,> 25
C=C1C(=O)O[C@H]2[C@H]1CC/C(COC(=O)c1cc3cc(OC)ccc3[nH]1)=C\CC[C@@]1(C)O[C@@H]21,1.58,3.2
COCC(=O)OC1CCn2c1nc1c2C(=O)C(C)=C(NC(C)=O)C1=O (stereo not given),–,4.71
COc1ccc(C2C(C#N)=C(N)OC3=C2CCCc2ccc(F)cc23)cc1OC (stereo not given),17.3,45.5
COC(=O)c1c(O)ccc2[nH]c(C)c(C#N)c12,39.9,> 100
COc1ccc2c(c1)C=CC(C#N)N2C(=O)c1ccccc1 (stereo not given),< 0.01,3.14

# Test system: NCI-H460 lung
# Assay: DTP human tumour cell line panel, 48 h
Structure (SMILES),GI50 [µM],TGI [µM]
C[C@H]1CCC/C=C/[C@@H]2C[C@H](N)C[C@H]2[C@H](O)/C=C/C(=O)O1,> 100,> 100
Cc1sc(C)c(-c2ccc(CO)o2)c1-c1ccc(CO)o1,0.124,> 100
COc1ccc(-c2cc(-c3cc(Cl)ccc3Cl)nc3nc(=S)[nH]c(N)c23)cc1,47.6,> 100
CC1=C(C)C(=O)O[C@@H]([C@](C)(O)[C@]2(O)CC[C@@]3(O)[C@@H]4C[C@H]5O[C@]56CC=CC(=O)[C@]6(C)[C@H]4CC[C@]23C)C1,0.618,2.4
CNC(=O)c1ccc(-c2cnc3ncc(Cc4ccc5ncccc5c4)n3n2)cc1F,> 100,> 100
COc1ccc2c(-c3cc4ccccc4o3)cc(=O)oc2c1,–,> 100
O=C(Nc1cc(-c2ccccc2)[nH]n1)c1ccc(Cl)cc1,3.58,> 100
CCCSc1cc(Cl)nc(N)n1,> 100,> 100
CN1CCN(Cc2ccc(NC(=O)c3ccc(C(C)(C)C)c(C#Cc4cnc5cccnn45)c3)cc2C(F)(F)F)CC1,2.13,4.52
C=CC(=O)N1CCN(c2ncnc3c(F)c(-c4c(O)cccc4F)c(Cl)cc23)CC1,14.8,33.5
C=CCOc1c(Br)cc(Br)cc1Br,8.21,> 100
Cn1c(N)nc2c(nc(OCc3ccccc3)n2C2OC(CO)C(O)C2O)c1=O (stereo not given),–,> 100
CC(=O)n1c(-c2ccc(Cl)cc2)nc2c(c1=O)C(c1ccc(Cl)cc1)c1sc3c(Cl)cccc3c1O2 (stereo not given),0.365,1.39
COc1cc(/C=C2\CC3C4CC=C5CC(N6CCCC6)CC[C@]5(C)C4CC[C@]3(C)C2OC(C)=O)ccc1OCCN1CCCC1 (stereo not given in full),1.9,3.92
COc1ccccc1C(=O)c1ccc2ccccc2c1,–,84.1
CS(=O)(=O)Nc1ccc(-c2ccc3c(NC(=O)C4CC4)n[nH]c3c2)cc1,> 22.5,> 25
C=C1C(=O)O[C@H]2[C@H]1CC/C(COC(=O)c1cc3cc(OC)ccc3[nH]1)=C\CC[C@@]1(C)O[C@@H]21,1.83,3.84
COCC(=O)OC1CCn2c1nc1c2C(=O)C(C)=C(NC(C)=O)C1=O (stereo not given),–,38.2
COc1ccc(C2C(C#N)=C(N)OC3=C2CCCc2ccc(F)cc23)cc1OC (stereo not given),20.9,54.4
COC(=O)c1c(O)ccc2[nH]c(C)c(C#N)c12,37.3,> 100
COc1ccc2c(c1)C=CC(C#N)N2C(=O)c1ccccc1 (stereo not given),< 0.01,36.7

# Test system: OVCAR-4 ovarian
# Assay: DTP human tumour cell line panel, 48 h
Structure (SMILES),GI50 [µM],TGI [µM]
C[C@H]1CCC/C=C/[C@@H]2C[C@H](N)C[C@H]2[C@H](O)/C=C/C(=O)O1,> 100,> 100
Cc1sc(C)c(-c2ccc(CO)o2)c1-c1ccc(CO)o1,0.299,> 100
COc1ccc(-c2cc(-c3cc(Cl)ccc3Cl)nc3nc(=S)[nH]c(N)c23)cc1,> 100,> 100
CC1=C(C)C(=O)O[C@@H]([C@](C)(O)[C@]2(O)CC[C@@]3(O)[C@@H]4C[C@H]5O[C@]56CC=CC(=O)[C@]6(C)[C@H]4CC[C@]23C)C1,0.121,15.8
CNC(=O)c1ccc(-c2cnc3ncc(Cc4ccc5ncccc5c4)n3n2)cc1F,> 100,> 100
COc1ccc2c(-c3cc4ccccc4o3)cc(=O)oc2c1,–,71.8
O=C(Nc1cc(-c2ccccc2)[nH]n1)c1ccc(Cl)cc1,> 100,> 100
CCCSc1cc(Cl)nc(N)n1,> 100,> 100
CN1CCN(Cc2ccc(NC(=O)c3ccc(C(C)(C)C)c(C#Cc4cnc5cccnn45)c3)cc2C(F)(F)F)CC1,4.64,19.7
C=CC(=O)N1CCN(c2ncnc3c(F)c(-c4c(O)cccc4F)c(Cl)cc23)CC1,14.9,43.4
